Measured values reported in patent US20180116224A1, “PESTICIDAL COMPOSITIONS AND RELATED METHODS” (priority 2015, published 2018).

Tested on: green peach aphid (Myzus persicae)
Assay: pesticidal activity against green peach aphid on cabbage plants after soil treatment
Format: in vivo
Details: for number of live GPA aphids: 6.25 ppm loading, no soil conditioner
Protocol: Each tested compositions was prepared by mixing a predetermined amount of the CLOSER® SC insecticide (a sulfoxaflor concentrate having a sulfoxaflor concentration of 240 g/L) with a predetermined amount of the organic soil conditioner ACCELL®-STR in an aqueous medium.
The compositions containing different amounts of sulfoxaflor and the organic soil conditioner ACCELL®-STR were prepared as shown in TABLE 1. For example, the “Sulfoxaflor at 6.25 ppm” composition contained about 0.003% weight of sulfoxaflor based on total weight of the composition (i.e., 6.25 ppm of sulfoxaflor per one gram of final soil mixture). “Sulfoxaflor at 6.25 ppm+ACCELL®-STR at 384 ppm” composition contained about 0.003% weight of sulfoxaflor based on total weight of the composition (i.e., 6.25 ppm of sulfoxaflor per one gram of final soil mixture), and about 0.225% weight of the organic soil conditioner ACCELL®-STR based on total weight of the composition (i.e., 384 ppm per one gram of the final soil mixture; 1500 ppm per one gram of the total soil liquid).
The imidacloprid pesticide PROVADO® 1.6 from Bayer CropScience LP (North Carolina, USA) was used as a standard commercial pesticidal composition for aphid control. The imidacloprid pesticide PROVADO® 1.6 was tested at the same loading as that used for the sulfoxaflor, which was 6.25 ppm per gram of final soil mixture.
In this EXAMPLE 4, water was tested as a control composition. Furthermore, an aqueous solution of the organic soil conditioner ACCELL®-STR was tested.
Cabbage plants (Brassica oleracea capitata L) of uniform size (two new leaf stage) infested with green peach aphids (Myzus persicae) (“GPA”) were used as the study models according to the following procedure:
Cabbage seeds were planted in 3-inch pots containing a peat-based METRO MIX 360® potting soil available from SUN GRO® Horticulture Canada, Ltd. The seeds were propagated in greenhouse zone G4, located in the R&D building of Dow AgroSciences (Indianapolis, Ind., USA), at 26° C. with a relative humidity of 53%. Natural light was supplemented with 1,000-watt metal halide overhead lamps with an average illumination of about 500 μE/m^2.s photosynthetic active radiation for 16 consecutive hours each day.
Each of the 1-ounce clear cups was filled with about 30 grams of the inoculated Midwest field soil having the components as shown in TABLE 2. […] The soil moisture of the Midwest field soil was about 15% as measured by Mettler LJ16 Moisture Analyzer (15 minutes and 100° C.).
The Midwest field soil in each selected 1-ounce cup was treated with about 9 mL of the selected composition using a 10 mL pipette. […]
The pesticidal activity against GPA was determined three days after infestation, by counting the number of live GPA aphids present on each cabbage plant. […]

[1] = dose rate 6.25 ppm sulfoxaflor alone

## C[C@@H](c1ccc(C(F)(F)F)nc1)[S@](C)(=O)=NC#N (racemic) [Sulfoxaflor, [methyl(oxo){1-[6-(trifluoromethyl)-3-pyridyl]ethyl}-λ^6-sulfanylidene]cyanamide]
DAT of 21 days, counted three days after infestation
  number of live GPA aphids: about 10
DAT of 28 days
  number of live GPA aphids: about 90
[1]
  % Control at DAT of 21 days: 91.19%
  % Control at DAT of 28 days: 0%
